Laboratory results published in ChEMBL document CHEMBL1201862, “PubChem BioAssay data set” (2004).
Activity calls are given as the source filed them.

Key:
HEK293 [1] = assay: cells; format: functional, cell-based; conditions: Homo sapiens
[2] = biological target: Voltage-gated inwardly rectifying potassium channel KCNH2 (Homo sapiens, UniProt Q12809); assay: hERG protection from proarrhythmic block, potency, dose response, cell-based, thallium flux (AID 2121); format: ADME
BJ [3] = assay: cytotoxicity toward BJ-TERT-LT-ST fibroblasts, dose response, cell-based, RAS-independent, luminescence (AID 1935); format: functional; conditions: Homo sapiens;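 also: BJ fibroblasts immortalized with TERT plus LT and ST oncogenes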
[4] = C. albicans growth with fluconazole, confirmation, fluorescence, retest (AID 2467); format: functional, cell-based
INS1 = assay: beta cell apoptosis inhibitors, cytokine rescue, dose response, luminescence, retest (AID 449756); format: functional, cell-based; conditions: Rattus norvegicus;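 also: cell death triggered by IL-1 beta plus TNF-alpha plus IFN-gamma mixture; protective hits raise ATP signal compared with cytokine alone wells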
Vero [5] = assay: cells; format: functional; conditions: Chlorocebus sabaeus
[6] = NIH-3T3 fibroblast cytotoxicity, dose response, cytotoxicity control, cell-based, fluorescence, Alamar Blue, secondary assay (AID 2327); format: functional;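 also: NIH-3T3 mouse fibroblasts cultured with fluconazole at 8 µg/mL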
[7] = biological target: Nucleotide-binding oligomerization domain-containing protein 2 (Homo sapiens, UniProt Q9HC29); assay: NOD2 signaling inhibitors, cell-based, luminescence, uHTS, HEK293 (AID 1566); format: functional
HEK293 [8] = assay: NOD2 signaling inhibitors in MDP-stimulated cells, cell-based, uHTS, luminescence (AID 2001); format: functional; conditions: Homo sapiens
HEK293 [9] = assay: cells; format: functional, cell-based; conditions: Homo sapiens; remark: listed apart in the source
HEK293 [10] = assay: inhibitors of LMP1-driven NF-kB reporter, dose response, cell-based, HEK293, luciferase, cherry-pick (AID 588343); format: functional; conditions: Homo sapiens
Vero [11] = assay: cells; format: functional, cell-based; conditions: Chlorocebus sabaeus
BJ [12] = assay: cytotoxicity toward Ras-transformed BJeLR fibroblasts, dose response, cell-based, alamar blue fluorescence, cherrypicked samples (AID 2631); format: functional; conditions: Homo sapiens;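 also: confirmatory dose-response assay in RAS-dependent BJ fibroblasts engineered with TERT, LT and ST, with cytotoxicity read by fluorescence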
[13] = biological target: Heat shock protein HSP 90-alpha (Homo sapiens, UniProt P07900); format: functional, organism-based
[14] = cytotoxicity toward DRD oncogenic fibroblasts, dose response, cell-based, non-viral oncogenic, luminescence (AID 1934); format: functional; conditions: Homo sapiens
HEK293 [15] = assay: NOD1 signaling inhibitors, primary screen, cell-based, luminescence, uHTS (AID 1578); format: functional; conditions: Homo sapiens
BJ [16] = assay: cells; format: functional, cell-based; conditions: Homo sapiens
BJ [17] = assay: cytotoxicity toward BJ-TERT fibroblasts, dose response, cell-based, RAS-independent, luminescence (AID 1933); format: functional; conditions: Homo sapiens
HEK293 [18] = assay: cells; format: functional, cell-based; conditions: Homo sapiens; remark: listed apart in the source
[19] = biological target: T1, Serine/threonine-protein phosphatase (Candida dubliniensis (strain CD36 / CBS 7987 / NCPF 3949 / NRRLY-17841) (Yeast), UniProt B9W6M3); assay: calcineurin pathway inhibitors in yeast reporter, dose response, S. cerevisiae, CDRE-lacZ, luminescence, secondary (AID 2388); format: functional, cell-based;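 also: yeast reporter cells carrying a calcineurin-responsive lacZ construct stimulated with calcium chloride; luminescent beta-galactosidase reporter signal in whole cells rather than isolated phosphatase activity; potency for inhibition where a drop in reporter signal means calcineurin blockade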
T1 sequence (B9W6M3 whole entry): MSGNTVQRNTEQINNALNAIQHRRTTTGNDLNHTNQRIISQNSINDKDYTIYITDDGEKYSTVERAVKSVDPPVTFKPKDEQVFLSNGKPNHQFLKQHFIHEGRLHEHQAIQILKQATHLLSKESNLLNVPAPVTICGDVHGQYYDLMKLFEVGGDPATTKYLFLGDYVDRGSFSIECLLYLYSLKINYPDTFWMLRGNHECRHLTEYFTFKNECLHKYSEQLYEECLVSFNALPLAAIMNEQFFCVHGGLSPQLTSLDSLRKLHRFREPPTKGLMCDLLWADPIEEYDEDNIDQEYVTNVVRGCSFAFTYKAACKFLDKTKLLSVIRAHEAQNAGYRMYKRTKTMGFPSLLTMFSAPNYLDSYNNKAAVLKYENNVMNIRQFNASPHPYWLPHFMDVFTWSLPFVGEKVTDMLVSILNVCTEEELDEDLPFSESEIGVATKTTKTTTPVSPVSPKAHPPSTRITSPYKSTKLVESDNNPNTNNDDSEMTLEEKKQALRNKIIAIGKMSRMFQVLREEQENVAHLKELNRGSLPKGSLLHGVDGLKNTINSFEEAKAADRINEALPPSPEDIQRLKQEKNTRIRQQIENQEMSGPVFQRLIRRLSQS

[20] = biological target: ATP-dependent molecular chaperone HSP82 (Candida albicans (strain WO-1) (Yeast), UniProt C4YTQ8); assay: loss of DOC-induced GRE-beta-galactosidase reporter signal, dose response, Hsp90 inhibitor project, S. cerevisiae, luminescence (AID 2400); format: functional, cell-based;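 also: beta-galactosidase luminescence from glucocorticoid response element reporter as proxy for Hsp90 function; inhibitor potency where signal loss means Hsp90 inhibition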
[21] = biological target: 26S proteasome non-ATPase regulatory subunit 14 (Homo sapiens, UniProt O00487); assay: inhibition of proteasome subunit RPN11 – biochemical, fluorescence polarization, uHTS hits, confirmation (AID 602368); format: functional
[22] = biological target: T2, Zinc finger protein mex-5 (Caenorhabditis elegans, UniProt Q9XUB2); assay: MEX-5/TCR-2 RNA interaction inhibitors, dose response, biochemical, C. elegans, fluorescence polarization (AID 1960)
T2 sequence (Q9XUB2 whole entry): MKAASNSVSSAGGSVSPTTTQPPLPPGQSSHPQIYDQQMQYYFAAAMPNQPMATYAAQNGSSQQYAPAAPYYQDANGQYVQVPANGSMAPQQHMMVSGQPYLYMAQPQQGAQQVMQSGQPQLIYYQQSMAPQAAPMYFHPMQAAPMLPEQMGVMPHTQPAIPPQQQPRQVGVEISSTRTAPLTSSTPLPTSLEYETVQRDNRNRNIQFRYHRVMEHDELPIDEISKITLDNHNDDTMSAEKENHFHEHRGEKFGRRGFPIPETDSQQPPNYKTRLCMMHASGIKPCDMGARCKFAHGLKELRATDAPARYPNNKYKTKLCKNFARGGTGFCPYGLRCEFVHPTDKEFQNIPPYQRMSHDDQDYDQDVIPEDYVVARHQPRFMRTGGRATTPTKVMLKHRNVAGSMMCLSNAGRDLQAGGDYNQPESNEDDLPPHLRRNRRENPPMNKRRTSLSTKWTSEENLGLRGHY

[23] = biological target: T3, RNA-binding protein pos-1 (Caenorhabditis elegans, UniProt G5EF15); assay: inhibitors of POS-1/mex-3 RNA binding, dose response, biochemical, fluorescence polarization (AID 1964);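 also: purified POS-1 fused to maltose binding protein made in E. coli; potency of compounds blocking POS-1 binding to fluorescent RNA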
T3 sequence (G5EF15 whole entry): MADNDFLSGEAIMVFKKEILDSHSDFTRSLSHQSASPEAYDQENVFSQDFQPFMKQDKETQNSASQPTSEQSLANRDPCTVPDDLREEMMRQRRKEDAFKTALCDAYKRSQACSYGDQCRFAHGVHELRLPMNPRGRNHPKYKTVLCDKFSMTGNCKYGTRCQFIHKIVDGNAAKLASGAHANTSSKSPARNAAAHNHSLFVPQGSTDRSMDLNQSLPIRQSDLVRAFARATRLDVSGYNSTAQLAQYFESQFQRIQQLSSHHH

[24] = Counterscreen for IDE inhibitors: Luminescence-based cell-based high throughput dose response assay to identify compounds that are cytotoxic to HEK cells. [Related pubchem assays: 434962 (Primary screen (IDE inhibitors in singlicate)), 449730 (Counterscreen (Cytotoxicity in triplicate)), 435028 (Confirmation (IDE inhibitors in triplicate)) …; format: functional; conditions: HEK293
[25] = biological target: 72 kDa type IV collagenase (Homo sapiens, UniProt P08253); assay: Dose Response validation of uHTS RPN11 inhibitor hits using a MMP-2 Fluorescence assay.; format: functional
Insulin-degrading enzyme = biological target: T4, Insulin-degrading enzyme (Homo sapiens, UniProt P14735); assay: Dose Response: Fluorescence polarization-based cell-based high throughput dose response assay for inhibitors of insulin-degrading enzyme (IDE). [Related pubchem assays: 434962 (Primary screen (IDE inhibitors in singlicate)), 449730 (Counterscreen (Cytotoxicity in triplicate)), 435028 (Confirmation (IDE inhibitors in triplicate)), 434984 (Summary …; format: functional
T4 sequence (P14735 whole entry): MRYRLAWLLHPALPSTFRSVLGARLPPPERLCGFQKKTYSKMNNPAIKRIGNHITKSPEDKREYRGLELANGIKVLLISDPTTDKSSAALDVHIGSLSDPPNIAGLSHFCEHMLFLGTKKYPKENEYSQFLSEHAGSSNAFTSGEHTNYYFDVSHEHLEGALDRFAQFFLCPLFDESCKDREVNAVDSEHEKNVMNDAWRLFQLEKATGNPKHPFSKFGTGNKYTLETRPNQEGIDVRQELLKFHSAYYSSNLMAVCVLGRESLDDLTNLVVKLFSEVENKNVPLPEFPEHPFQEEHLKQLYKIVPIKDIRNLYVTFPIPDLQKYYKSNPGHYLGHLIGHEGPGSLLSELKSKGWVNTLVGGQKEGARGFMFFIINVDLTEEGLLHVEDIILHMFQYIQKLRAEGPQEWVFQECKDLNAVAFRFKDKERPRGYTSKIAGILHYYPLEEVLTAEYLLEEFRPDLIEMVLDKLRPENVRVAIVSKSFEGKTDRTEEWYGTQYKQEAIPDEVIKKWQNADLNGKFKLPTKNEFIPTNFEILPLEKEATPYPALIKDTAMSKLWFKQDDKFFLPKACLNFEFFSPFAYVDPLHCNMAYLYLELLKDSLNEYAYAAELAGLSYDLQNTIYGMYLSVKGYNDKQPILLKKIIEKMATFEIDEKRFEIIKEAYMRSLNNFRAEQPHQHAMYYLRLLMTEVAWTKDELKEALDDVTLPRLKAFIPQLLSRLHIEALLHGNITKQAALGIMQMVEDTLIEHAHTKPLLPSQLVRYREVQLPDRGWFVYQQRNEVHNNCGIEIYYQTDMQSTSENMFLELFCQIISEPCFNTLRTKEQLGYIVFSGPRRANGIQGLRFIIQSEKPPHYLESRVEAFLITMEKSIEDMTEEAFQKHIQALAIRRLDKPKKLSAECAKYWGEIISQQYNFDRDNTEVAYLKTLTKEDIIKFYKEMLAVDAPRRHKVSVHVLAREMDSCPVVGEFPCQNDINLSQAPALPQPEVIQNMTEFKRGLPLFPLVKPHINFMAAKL

Prothrombin = Prothrombin (Bos taurus, UniProt P00735); assay: thrombin inhibition, dose response, biochemical, fluorescence polarization, uHTS hits (AID 602369); format: functional
[26] = HEp-2 cell cytotoxicity, dose response, cytotoxicity control for RSV inhibitor project, HTS (AID 2410); format: functional; conditions: human respiratory syncytial virus
[27] = off-target signal loss in HeLa-CEM21 co-culture – HeLa F-luc CTL cells, cherry-picked, counter-screen for HIV-1 Env fusion inhibitor project, dose response (AID 652040); format: functional, cell-based;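 also: potency for signal decrease marking cytotoxic or nonspecific inhibition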
[28] = inhibitors of HIV Env-driven cell fusion, dose response, cherry-pick (AID 652057); format: functional, cell-based
[29] = ZM109 Env clade C HIV-1 fusion inhibitors, dose response, HeLa effector, CEM target cells, luciferase, cherry-pick (AID 652058); format: functional, cell-based
[30] = inhibitors of clade B AD8 Env fusion, dose response, cell-based, cherry-pick (AID 652062); format: functional;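 also: luciferase signal from cell-cell fusion driven by HIV-1 clade B AD8 Env; potency is for inhibitors of fusion seen as a drop in luminescence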
[31] = biological target: T5, Mannose-6-phosphate isomerase (Homo sapiens, UniProt P34949); assay: inhibitors of human PMI, primary screen, biochemical, fluorescence intensity, coupled assay (AID 1209)
T5 sequence (P34949 whole entry): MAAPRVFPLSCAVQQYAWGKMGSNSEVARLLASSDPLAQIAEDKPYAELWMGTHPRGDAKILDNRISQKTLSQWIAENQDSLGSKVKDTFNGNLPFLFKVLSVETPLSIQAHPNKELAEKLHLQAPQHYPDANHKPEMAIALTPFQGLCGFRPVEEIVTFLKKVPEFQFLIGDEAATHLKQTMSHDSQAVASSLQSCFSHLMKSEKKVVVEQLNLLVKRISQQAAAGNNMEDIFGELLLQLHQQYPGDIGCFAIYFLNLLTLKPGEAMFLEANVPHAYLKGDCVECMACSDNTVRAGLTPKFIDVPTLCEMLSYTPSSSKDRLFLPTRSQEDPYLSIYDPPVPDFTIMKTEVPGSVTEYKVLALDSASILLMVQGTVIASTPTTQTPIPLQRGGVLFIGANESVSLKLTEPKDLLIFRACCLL

[32] = biological target: Peroxisome proliferator-activated receptor gamma/Nuclear receptor coactivator 1 (Homo sapiens, UniProt P37231); format: functional;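 also: agonist potency as compounds enhance coactivator SRC-1 recruitment to PPARgamma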
[33] = biological target: Peroxisome proliferator-activated receptor gamma/Nuclear receptor coactivator 2 (Homo sapiens, UniProt P37231); format: functional;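 also: agonist potency for raising coactivator recruitment to the receptor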
[34] = biological target: Peroxisome proliferator-activated receptor gamma/Nuclear receptor coactivator 3 (Homo sapiens, UniProt P37231); format: functional;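 also: agonist potency for raising coactivator recruitment to the receptor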

Sequence of ATP-dependent molecular chaperone HSP82 (C4YTQ8 whole entry): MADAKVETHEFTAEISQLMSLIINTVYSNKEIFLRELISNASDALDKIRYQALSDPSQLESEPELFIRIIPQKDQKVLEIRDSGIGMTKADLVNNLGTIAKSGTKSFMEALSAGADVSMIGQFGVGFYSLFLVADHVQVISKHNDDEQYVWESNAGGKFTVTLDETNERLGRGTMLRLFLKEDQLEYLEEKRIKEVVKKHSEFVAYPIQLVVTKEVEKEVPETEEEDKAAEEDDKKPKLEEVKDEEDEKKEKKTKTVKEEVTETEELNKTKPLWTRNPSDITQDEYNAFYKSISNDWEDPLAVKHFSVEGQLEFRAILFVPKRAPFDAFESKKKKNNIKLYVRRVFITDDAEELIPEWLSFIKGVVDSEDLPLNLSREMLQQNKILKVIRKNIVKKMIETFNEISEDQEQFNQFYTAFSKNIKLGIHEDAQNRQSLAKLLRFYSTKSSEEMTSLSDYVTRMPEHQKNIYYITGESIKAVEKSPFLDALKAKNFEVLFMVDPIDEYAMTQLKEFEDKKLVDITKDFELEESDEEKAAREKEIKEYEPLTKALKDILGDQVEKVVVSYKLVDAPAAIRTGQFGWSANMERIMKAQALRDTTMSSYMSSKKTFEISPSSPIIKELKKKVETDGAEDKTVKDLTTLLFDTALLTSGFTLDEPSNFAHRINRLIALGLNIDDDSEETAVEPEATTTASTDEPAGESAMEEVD
Sequence of 26S proteasome non-ATPase regulatory subunit 14 (O00487 whole entry): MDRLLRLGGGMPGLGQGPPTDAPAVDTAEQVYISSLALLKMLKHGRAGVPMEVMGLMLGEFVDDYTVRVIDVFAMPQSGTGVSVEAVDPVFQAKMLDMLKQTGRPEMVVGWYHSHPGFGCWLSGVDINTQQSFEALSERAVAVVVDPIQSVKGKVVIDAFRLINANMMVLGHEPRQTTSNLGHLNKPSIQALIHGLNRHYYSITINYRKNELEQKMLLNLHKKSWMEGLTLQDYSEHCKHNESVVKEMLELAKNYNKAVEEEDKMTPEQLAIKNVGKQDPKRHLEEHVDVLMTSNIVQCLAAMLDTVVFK
Sequence of Nucleotide-binding oligomerization domain-containing protein 2 (Q9HC29 whole entry, the tested form may be a part): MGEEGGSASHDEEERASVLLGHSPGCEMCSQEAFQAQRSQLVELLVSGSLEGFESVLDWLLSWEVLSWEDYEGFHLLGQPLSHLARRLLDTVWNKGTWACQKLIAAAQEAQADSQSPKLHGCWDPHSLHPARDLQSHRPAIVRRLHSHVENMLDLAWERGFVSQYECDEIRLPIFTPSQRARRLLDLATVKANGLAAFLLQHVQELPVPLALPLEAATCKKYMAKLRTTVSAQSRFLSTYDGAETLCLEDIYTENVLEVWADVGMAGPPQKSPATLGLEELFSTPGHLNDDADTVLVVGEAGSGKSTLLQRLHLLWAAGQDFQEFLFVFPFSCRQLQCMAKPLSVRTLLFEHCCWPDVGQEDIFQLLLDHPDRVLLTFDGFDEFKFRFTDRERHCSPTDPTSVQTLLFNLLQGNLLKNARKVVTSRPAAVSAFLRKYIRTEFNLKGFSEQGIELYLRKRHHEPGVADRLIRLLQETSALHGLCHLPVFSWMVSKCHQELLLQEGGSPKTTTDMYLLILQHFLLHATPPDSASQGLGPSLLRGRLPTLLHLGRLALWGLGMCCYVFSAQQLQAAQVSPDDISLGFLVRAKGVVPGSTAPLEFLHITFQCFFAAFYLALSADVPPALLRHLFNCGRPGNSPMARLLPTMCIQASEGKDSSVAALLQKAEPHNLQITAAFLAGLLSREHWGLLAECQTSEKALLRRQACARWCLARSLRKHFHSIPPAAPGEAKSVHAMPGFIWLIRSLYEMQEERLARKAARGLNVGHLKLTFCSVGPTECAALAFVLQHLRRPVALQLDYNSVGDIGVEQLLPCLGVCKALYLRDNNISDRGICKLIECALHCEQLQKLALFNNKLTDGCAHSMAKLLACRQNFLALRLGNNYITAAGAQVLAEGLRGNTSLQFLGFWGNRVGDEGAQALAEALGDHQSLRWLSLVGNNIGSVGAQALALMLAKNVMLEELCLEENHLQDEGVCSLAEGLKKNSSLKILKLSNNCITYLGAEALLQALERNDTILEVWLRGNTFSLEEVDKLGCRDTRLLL
Sequence of Voltage-gated inwardly rectifying potassium channel KCNH2 (Q12809 whole entry): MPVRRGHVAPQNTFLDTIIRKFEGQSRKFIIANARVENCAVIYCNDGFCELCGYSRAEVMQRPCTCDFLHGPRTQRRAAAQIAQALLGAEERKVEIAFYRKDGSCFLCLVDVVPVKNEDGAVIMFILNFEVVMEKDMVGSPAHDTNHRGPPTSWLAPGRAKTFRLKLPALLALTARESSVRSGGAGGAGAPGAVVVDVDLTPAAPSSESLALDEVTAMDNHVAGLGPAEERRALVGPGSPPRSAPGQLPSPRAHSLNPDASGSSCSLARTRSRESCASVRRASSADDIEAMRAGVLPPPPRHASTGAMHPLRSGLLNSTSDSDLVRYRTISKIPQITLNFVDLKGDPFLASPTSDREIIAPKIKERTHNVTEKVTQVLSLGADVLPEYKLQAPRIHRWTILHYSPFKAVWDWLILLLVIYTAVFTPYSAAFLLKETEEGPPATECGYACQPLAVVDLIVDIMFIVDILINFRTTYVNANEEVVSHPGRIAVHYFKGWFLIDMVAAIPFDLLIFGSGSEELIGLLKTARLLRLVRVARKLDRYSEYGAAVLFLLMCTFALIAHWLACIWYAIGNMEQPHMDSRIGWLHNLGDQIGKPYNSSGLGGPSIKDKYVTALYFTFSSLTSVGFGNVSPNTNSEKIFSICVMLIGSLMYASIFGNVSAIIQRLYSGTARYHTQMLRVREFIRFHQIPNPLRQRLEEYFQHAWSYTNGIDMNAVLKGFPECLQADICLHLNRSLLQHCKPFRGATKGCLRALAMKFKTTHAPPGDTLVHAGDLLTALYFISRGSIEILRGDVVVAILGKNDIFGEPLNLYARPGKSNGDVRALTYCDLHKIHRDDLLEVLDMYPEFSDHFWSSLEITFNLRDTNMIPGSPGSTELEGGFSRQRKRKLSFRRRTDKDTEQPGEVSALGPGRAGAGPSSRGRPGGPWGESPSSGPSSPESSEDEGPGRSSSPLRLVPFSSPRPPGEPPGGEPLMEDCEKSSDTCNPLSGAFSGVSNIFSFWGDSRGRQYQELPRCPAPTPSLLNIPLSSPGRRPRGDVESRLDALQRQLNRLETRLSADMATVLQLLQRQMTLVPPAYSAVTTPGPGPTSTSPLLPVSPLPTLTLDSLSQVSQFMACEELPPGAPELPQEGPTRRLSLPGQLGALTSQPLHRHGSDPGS
Sequence of 72 kDa type IV collagenase (P08253 whole entry): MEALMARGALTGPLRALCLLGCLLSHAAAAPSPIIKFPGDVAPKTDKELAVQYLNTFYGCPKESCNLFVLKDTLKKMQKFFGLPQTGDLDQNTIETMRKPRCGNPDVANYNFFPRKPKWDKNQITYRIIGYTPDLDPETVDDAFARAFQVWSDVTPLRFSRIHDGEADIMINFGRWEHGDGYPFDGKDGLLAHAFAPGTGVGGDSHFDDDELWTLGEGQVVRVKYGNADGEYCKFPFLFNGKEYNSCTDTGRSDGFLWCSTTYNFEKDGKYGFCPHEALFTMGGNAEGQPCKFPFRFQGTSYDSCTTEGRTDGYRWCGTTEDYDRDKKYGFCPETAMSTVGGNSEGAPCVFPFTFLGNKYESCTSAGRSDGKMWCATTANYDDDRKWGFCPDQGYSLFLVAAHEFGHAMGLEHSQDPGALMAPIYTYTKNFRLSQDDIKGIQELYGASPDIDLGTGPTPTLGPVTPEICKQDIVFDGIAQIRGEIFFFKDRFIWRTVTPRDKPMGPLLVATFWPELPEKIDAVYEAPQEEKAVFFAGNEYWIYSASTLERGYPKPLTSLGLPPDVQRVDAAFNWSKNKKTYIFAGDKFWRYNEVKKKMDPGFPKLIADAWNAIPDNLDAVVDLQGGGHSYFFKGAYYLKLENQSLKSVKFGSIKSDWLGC

COc1cccc(N=Nc2ccc(O)c3ncccc23)c1
IC50 (HEK293 [1]): > 20 µM (inactive)
EC50 [2]: 2.99 µM (active)
EC50 (BJ [3]): 8.08 µM (inconclusive)
EC50 [4]: 0.79 µM (active)
AC50 (INS1): 2.1 µM (active)
CC50 (Vero [5]): 6.41 µM (active)
EC50 [6]: > 160 µM (inactive)
EC50 [7]: > 20 µM (inactive)
IC50 (HEK293 [8]): 3.4 µM (inactive)
IC50 (HEK293 [9]): > 20 µM (inactive)
AC50 (HEK293 [10]): 3.6 µM (active)
IC50 (Vero [11]): > 25 µM (active)
EC50 (BJ [12]): 1.05 µM (active)
AC50 [13]: 4.01 µM (active)
EC50 [14]: 12.7 µM (inconclusive)
EC50 (HEK293 [15]): 3.74 µM (active)
EC50 (BJ [16]): 2.8 µM (inconclusive)
EC50 (BJ [17]): 7.7 µM (inconclusive)
IC50 (HEK293 [18]): 3.04 µM (active)
EC50 [19]: > 180 µM (inactive)
EC50 [20]: 13.6 µM (active)

COc1cc(OC)c(OC)cc1/C=C1\Oc2cc(OS(C)(=O)=O)ccc2C1=O
IC50 [21]: 4.35 µM (active)
EC50 [22]: > 300 µM (not active)
EC50 [23]: > 300 µM (not active)
IC50 [24]: > 55.7 µM (not active)
IC50 [25]: > 100 µM (inactive)
IC50 (Insulin-degrading enzyme): > 55.9 µM (not active)
IC50 (Prothrombin): 0.468 µM (active)

CCN(CC(=O)Nc1cc(Cl)ccc1C)C(=O)CSCc1ccc(C)cc1
IC50 (cells): 22.8 µM (active)
CC50 [26]: 24.5 µM (active)

O=C(NCc1ccco1)c1ccc(Cn2c(=O)c3ccccc3n(Cc3ccc(Cl)cc3)c2=O)cc1
AC50 [27]: 0.421 µM (active)
AC50 [28]: 0.669 µM (active)
IC50 (cells): 0.58 µM (active)
AC50 [29]: 1.48 µM (active)
CC50 [26]: > 50 µM (active)
AC50 [30]: 5.95 µM (active)

O=C(O)c1cccc(N/N=C/c2cccnc2)c1
IC50 [31]: > 50 µM (not active)

CC(=O)Nc1c(O)nc(SCC(=O)Nc2ccc(C(C)=O)cc2)[nH]c1=O
EC50 [32]: > 79.4 µM (not active)
EC50 [33]: > 79.4 µM (not active)
EC50 [34]: > 79.4 µM (not active)
